From publication PMC4749642, “Evaluation of anticonvulsant and antinociceptive properties of new N-Mannich bases derived from pyrrolidine-2,5-dione and 3-methylpyrrolidine-2,5-dione” (Naunyn-Schmiedeberg's Archives of Pharmacology, 2015)
Where “and” joins values, the source holds several entries; their conditions need not be identical. Equal values may be shown once. Read-outs that look alike come from different tables or passages of the source. Marks after values point to notes of the source that are not given here.

Key:
mice [1] = assay: Electroconvulsive threshold test (MEST test); type: in vivo, mouse; details: 4 h before the test; for CS50 (mA) (CI): value with 95 % confidence interval
mice [2] = assay: Pilocarpine-induced seizure test; type: in vivo, mouse; details: for Latency to status epilepticus (s) ± SEM: 4 h before pilocarpine 400 mg/kg; for Anticonvulsant effect (%) (prolongation of latency time to seizures vs vehicle): 4 h before pilocarpine, 100 mg/kg
Method: (§1) Male CD-1 mice weighing 18–24 g were used in the in vivo experiment. The animals were kept at room temperature of 20 ± 2 °C under standard conditions (12:12 h light-dark cycle, standard pellet diet, tap water). All the experiments were performed between 8 a.m. and 3 p.m. For the experiments, the animals were selected in a random way and sacrificed by cervical dislocation immediately after the assay. The experimental protocol was approved by the Local Ethics Commission for Animal Experiments of the Jagiellonian University in Cracow, and all experiences were conducted in accordance with the 1996 NIH Guide for the Care and Use of Laboratory Animals.
(§2) The tested compounds 12 (N-[{4-(3,4-dichlorophenyl)-piperazin-1-yl}-methyl]-3-methylpyrrolidine-2,5-dione), 13 (N-[{4-(3-trifluoromethylphenyl)-piperazin-1-yl}-methyl]-3-methylpyrrolidine-2,5-dione), 15 (N-[{4-(3-methylphenyl)-piperazin-1-yl}-methyl]-3-methylpyrrolidine-2,5-dione), 23 (N-[{4-(3,4-dichlorophenyl)-piperazin-1-yl}-methyl]-pyrrolidine-2,5-dione), and 24 (N-[{4-(3-trifluoromethylphenyl)-piperazin-1-yl}-methyl]-pyrrolidine-2,5-dione) were synthesized at the Department of Medicinal Chemistry, Jagiellonian University Medical College in Cracow (Scheme 1). The synthesis of the investigated compounds was described earlier (Rybka et al. [2014]). The investigated compounds were suspended in a 0.5 % aqueous solution of methylcellulose (Loba Chemie, Germany). Lacosamide (Vimpat, UCB Pharma, Belgium), pilocarpine (Sigma-Aldrich, Germany), scopolamine butylbromide (Sigma-Aldrich, Germany), and formaldehyde (POCh, Poland) were dissolved in distilled water. Agents were administered intraperitoneally (i.p.) at a volume of 0.1 ml/10 g. Control animals were administered an equivalent volume of vehicle (0.5 % aqueous solution of methylcellulose) via the same route as the test compounds.
The experimental procedure was originally described by Turski et al. ([1987]). Seizures were induced in mice by i.p. injection of pilocarpine at a dose of 400 mg/kg. Forty-five minutes before pilocarpine, animals were also pretreated with scopolamine butylbromide (1 mg/kg, i.p.) to reduce peripheral autonomic side effects and masticatory and stereotyped movements (Kowalczyk et al. [2014]). Direct observation was performed for 60 min to monitor the latency time to the onset of the limbic seizures, characterized by a subsequent development of behavioral symptoms, such as tremor, head bobbing, and myoclonic movements of the forelimbs progressing to recurrent myoclonic convulsions with rearing, salivation, falling, and status epilepticus (Łuszczki et al. [2008]; Turski [2000]).

mice [3] = assay: Hot plate test; type: in vivo, mouse; details: dose 30 mg/kg i.p.
Method: as §1, §2
In the hot plate test, the mice were i.p. pretreated either with the test compound or vehicle before placing the animal on the hot plate apparatus (Panlab/Harvard Apparatus, Spain). This apparatus has an electrically heated surface and is supplied with a temperature controller that maintains the temperature at 55–56 °C. The time to the first reaction (licking or jumping) of mice to a nociceptive stimulus was recorded. The cutoff time was established to 60 s to avoid paw tissue damage (Sałat et al. [2014]).

mice [4] = assay: Formalin hind paw test; type: in vivo, mouse; details: dose 30 mg/kg i.p.; for antinociceptive effect (reduction of licking response), second (late) phase: 15–30 min after 5 % formalin
Method: as §1, §2
Antinociceptive activity in the formalin hind paw test was examined according to Laughlin et al. ([2002]). Twenty microliters of a 5 % formalin solution was injected intraplantarly (i.pl.) into the right hind paw of the mouse. […] Time (in seconds) spent on licking or biting the injected hind paw in selected intervals, 0–5 and 15–30 min, was measured in each experimental group and was an indicator of nociceptive behavior. In mice, intraplantarly injection of diluted formalin produces a biphasic nocifensive behavioral response (i.e., licking or biting the injected hind paw). The acute nociceptive phase lasts for the first 5 min, whereas the second inflammatory phase occurs between 15 and 30 min after formalin injection.

mice [5] = assay: Spontaneous locomotor activity (photoresistor actometers); type: in vivo, mouse; details: dose 30 mg/kg i.p.; 30-min session
Method: as §1, §2
Locomotor activity was measured with photoresistor actometers (Ugo Basile, Italy) connected to a counter for the recording of light-beam interruptions. Mice were individually placed in plastic cages for 30 min habituation period, and then the number of light-beam crossings was counted for a 30-min session. The cages were cleaned up with 70 % ethanol after each mouse.

V. harveyi BB7 [6] = assay: Vibrio harveyi mutagenicity assay, BB7 strain; details: 40 ng/ml; for Mutagenicity BB7 M.I. (mutagenic index): positive assay when M.I. ≥ 2
Method: (§3) Two V. harveyi strains were used in the experiments: wild-type BB7 and genetically modified BB7XM (the UV-hypersensitive strain bearing plasmid pAB91273), which were described previously by Czyż et al. ([2000]).
(§4) Mutagenicity assay was performed as described previously (Czyż et al. [2000]). All experiments were carried out in triplicate and the results were expressed as mutagenic index (M.I. = the number of revertant colonies induced in the tested sample/the number of spontaneous revertants in the negative control) (Gulluce et al. [2010]).

V. harveyi BB7XM [7] = assay: Vibrio harveyi mutagenicity assay, BB7XM strain; details: 40 ng/ml; for Mutagenicity BB7XM M.I. (mutagenic index): positive assay when M.I. ≥ 2
Method: as §3, §4

V. harveyi BB7 [8] = assay: Vibrio harveyi antimutagenicity assay (vs NQNO), BB7 strain; type: cell-based; details: for inhibition of NQNO-induced mutagenicity in BB7 strain (in words): NQNO 40 ng/ml; for Antimutagenicity BB7 number of revertants Mean ± SD: test compound plus NQNO 40 ng/ml (NQNO line: mutagen only); for Antimutagenicity BB7 Inhib. (%) of mutagenicity: test compound plus NQNO 40 ng/ml, 25–40 % moderate, 40 % or more strong
Method: as §3
(§5) Antimutagenicity assay was performed according to previously described procedures (Czyż et al. [2002]; Pękala et al. [2013]). […] This was calculated as follows: Inhibition (%) = 100 − [(R1/R2) × 100], where R1 is the number of revertants per plate induced by test compound plus mutagen and R2 is the number of revertants in the plate containing only the mutagen (Słoczyńska et al. [2010]). No antimutagenic effect was considered when the inhibition was less than 25 %; a moderate effect for an inhibition value between 25 and 40 % and a strong antimutagenicity were recorded for inhibition higher than 40 % (Gulluce et al. [2010]).

V. harveyi BB7XM [9] = assay: Vibrio harveyi antimutagenicity assay (vs NQNO), BB7XM strain; type: cell-based; details: for Antimutagenicity BB7XM number of revertants Mean ± SD: test compound plus NQNO 40 ng/ml (NQNO line: mutagen only); for Antimutagenicity BB7XM Inhib. (%) of mutagenicity: test compound plus NQNO 40 ng/ml, 25–40 % moderate, 40 % or more strong
Method: as §3, §5

[10] = tested on: L-type calcium channel (dihydropyridine site); assay: L-type Ca channel (dihydropyridine site) [3H]nitrendipine binding assay; details: rat cerebral cortex
mice [11] = details: ref Rybka et al. [2014]; cited from earlier work
mice [12] = tested on: mice; set-up: method as in Rybka et al. [2014]; details: ref Rybka et al. [2014], cited from earlier work; for motor coordination in the rotarod test (in words): up to a dose of 500 mg/kg
[13] = tested on: L-type calcium channel (dihydropyridine site); set-up: method as in Kamiński et al. [2015b]; details: 100 μM; [3H]nitrendipine; rat cerebral cortex; ref Kamiński et al. [2015b]; cited from earlier work

| Compound | increase of electroconvulsive threshold (ECT) vs vehicle (mice [1]; dose 10 mg/kg i.p.) | CS50 (mA) (CI) (mice [1]; dose 10 mg/kg i.p.) | increase of electroconvulsive threshold (ECT) vs vehicle (mice [1]; dose 30 mg/kg i.p.) | CS50 (mA) (CI) (mice [1]; dose 30 mg/kg i.p.) | Latency to status epilepticus (s) ± SEM (mice [2]; dose 100 mg/kg i.p.) | Anticonvulsant effect (%) (prolongation of latency time to seizures vs vehicle) (mice [2]; dose 100 mg/kg i.p.) | antinociceptive effect (reduction of licking response), second (late) phase (mice [4]) | influence on locomotor activity (number of crossings, in words) (mice [5]) | Mutagenicity BB7 number of revertants Mean ± SD (V. harveyi BB7 [6]) | Mutagenicity BB7 M.I. (mutagenic index) (V. harveyi BB7 [6]) | Mutagenicity BB7XM number of revertants Mean ± SD (V. harveyi BB7XM [7]) | Mutagenicity BB7XM M.I. (mutagenic index) (V. harveyi BB7XM [7]) | inhibition of NQNO-induced mutagenicity in BB7 strain (in words) (V. harveyi BB7 [8]) | Antimutagenicity BB7 number of revertants Mean ± SD (V. harveyi BB7 [8]) | Antimutagenicity BB7 Inhib. (%) of mutagenicity (V. harveyi BB7 [8]) | Antimutagenicity BB7XM number of revertants Mean ± SD (V. harveyi BB7XM [9]) | Antimutagenicity BB7XM Inhib. (%) of mutagenicity (V. harveyi BB7XM [9]) | % inhibition of control specific binding ([10]; 10 μM) | % inhibition of control specific binding ([10]; 100 μM) | ED50 in the s.c.PTZ test (mice [11]) | also measured |
| --- | --- | --- | --- | --- | --- | --- | --- | --- | --- | --- | --- | --- | --- | --- | --- | --- | --- | --- | --- | --- | --- |
| CC1CC(=O)N(CN2CCN(c3ccc(Cl)c(Cl)c3)CC2)C1=O (centres unmarked) [Compound 12, N-[{4-(3,4-dichlorophenyl)-piperazin-1-yl}-methyl]-3-methylpyrrolidine-2,5-dione] | 51% | 7.94 (6.57–9.57)*** mA | 118% | 14.27 (8.21–24.80)** mA | 468.8 ± 39.60 s | 37% and 36.8% | 74% | did not significantly influence on locomotor activity | 25 ± 4 | 1.5 | 14 ± 6 | 1.2 | moderate inhibitors | 28 ± 4 | (26) % | 23 ± 5 | (5) % | 20.2% | 59.4% | 134.0 mg/kg | prolongation of latency time to pain reaction vs vehicle (mice [3]): 44%; latency time to pain reaction (mice [3]; mean ± SEM, vehicle 27.51 ± 1.36 s, cutoff 60 s): 39.73 ± 3.20 s; reduction of the duration of the licking response, first (neurogenic) phase (mice [4]; 0–5 min after 5 % formalin): 39%; TD50 in rotarod test (mice [12]; mice): > 500 mg/kg; motor coordination in the rotarod test (in words) (mice [12]): did not impair the motor coordination |
| CC1(C)O[C@@H]2[C@@H](CO[C@@]3(COS(N)(=O)=O)OC(C)(C)O[C@@H]23)O1 [Topiramate] |  |  |  |  |  |  |  |  |  |  |  |  |  |  |  |  |  |  |  |  | % inhibition of control specific binding [13]: 7.9% |
| O=C1CCC(=O)N1CN1CCN(c2ccc(Cl)c(Cl)c2)CC1 [Compound 23, N-[{4-(3,4-dichlorophenyl)-piperazin-1-yl}-methyl]-pyrrolidine-2,5-dione] | 27% | 8.42 (7.55–9.39)** mA | 61% | 10.53 (8.06–13.77)**** mA | 669.4 ± 73.04 s | 95% and 95.4% | 89% | significantly reduced the number of crossings | 19 ± 2 | 1.2 | 9 ± 3 | 0.7 | weakly suppressed | 32 ± 3 | (15) % | 24 ± 2 | (1) % | 12.3% | 65.9% | 128.8 mg/kg | Latency to status epilepticus (s) ± SEM (mice [2]; dose 30 mg/kg i.p.): 465.8 ± 37.61 s; antinociceptive activity in the hot plate test (in words) (mice [3]): did not show activity; effect on nocifensive response, first (neurogenic) phase (in words) (mice [4]; 0–5 min after 5 % formalin): did not attenuate the nocifensive response in this phase in a statistically significant manner; motor coordination in the rotarod test (in words) (mice [12]): did not impair the motor coordination |
